Where “and” joins values, the source holds several entries; their conditions need not be identical. Equal values may be shown once. Read-outs that look alike come from different tables or passages of the source.
Experiments:
[1] = test system: Ehrlich ascites carcinoma; assay: Ehrlich ascites carcinoma in white mice, body weight dynamics
[2] = rat, in vivo
[3] = rat, in vivo; remark: listed apart in the source
[4] = test system: ascites Ehrlich carcinoma cells; assay: Apoptosis in ascites Ehrlich carcinoma cells of treated mice (cytofluorimetric analysis); type: in vivo
[5] = rat, in vivo; remark: listed apart in the source
[6] = Acute toxicity in rats after a single intramuscular injection; type: in vivo, Wistar rats
[7] = Chronic toxicity in rats, intramuscular 30 days: clinical observation and body weight; conditions: 3, 9, or 20 mg/kg intramuscularly daily for a month
[8] = test system: human lymphoblastoid cells; assay: Cytotoxicity in human lymphoblastoid cells model
[9] = test system: type 1 human immunodeficiency virus; assay: Antiviral activity on HIV-1 infected human cell model (cell staining, CPE, syncytium formation); conditions: for CPE/syncytia (+): number of pluses of the four-plus system; for Cell survival rate, % / Number of cells × 10^3/mL: HIV-1 infected cells
[10] = ascites cells having large sizes and granularity (tumor cells)
[11] = ascites cells of moderate size and granularity

N-fullerene tris(δ-aminocaproic acid) hydrate [Agent 1]
Animal body weight ([1]; day 1 post tumor transplantation): 18.6 ± 2.3 g
Animal body weight ([1]; day 3 post tumor transplantation): 18.8 ± 2.2 g
Animal body weight ([1]; day 5 post tumor transplantation): 18.8 ± 1.9 g
Animal body weight ([1]; day 8 post tumor transplantation): 19.4 ± 1.7 g
Animal body weight ([1]; day 10 post tumor transplantation): 19.9 ± 1.7 g
Animal body weight ([1]; day 13 post tumor transplantation): 20.4 ± 1.5 g
Animal body weight ([1]; day 15 post tumor transplantation): 20.4 ± 1.4 g
Alkali hosphatase, Units/L ([2]; 3 mg/kg): 143 ± 47 Units/L
Cholesterol ([2]; 3 mg/kg): 4.17 ± 0.68 mmol/L
Glucose ([2]; 3 mg/kg): 7.64 ± 1.56 mmol/L
Total proten ([2]; 3 mg/kg): 71.12 ± 6.66 g/L
Alkali hosphatase, Units/L ([2]; 9 mg/kg): 159 ± 28 Units/L
Glucose ([2]; 9 mg/kg): 7.18 ± 0.80 mmol/L
Total protein ([2]; 9 mg/kg): 68.94 ± 2.97 g/L
Total proten ([2]; 9 mg/kg): 78.48 ± 8.94 g/L
Alkali hosphatase, Units/L ([2]; 20 mg/kg): 248 ± 107 Units/L
Total proten ([2]; 20 mg/kg): 72.76 ± 8.11 g/L
Urea ([2]; 20 mg/kg): 9.22 ± 1.56 mmol/L
Weight coefficients of viscera, Spleen [3]: 5.2 ± 0.7 g/kg body weight
Weight coefficients of viscera, heart [3]: 4.1 ± 0.4 g/kg body weight
Weight coefficients of viscera, kidneys [3]: 6.5 ± 0.4 g/kg body weight
Weight coefficients of viscera, liver [3]: 32.2 ± 1.8 g/kg body weight
Weight coefficients of viscera, lungs [3]: 7.1 ± 0.5 g/kg body weight
Weight coefficients of viscera, thymus [3]: 1.2 ± 0.4 g/kg body weight
weight coefficients of organs versus control [3]: no significant difference was found between experimental and control animals
weight coefficients of viscera versus control [3]: no distinctions between the rats of the experimental groups and the control group
Weight coefficients of viscera, Spleen ([3]; 3 mg/kg): 4.7 ± 0.5 g/kg body weight
Weight coefficients of viscera, heart ([3]; 3 mg/kg): 3.5 ± 0.7 g/kg body weight
Weight coefficients of viscera, kidneys ([3]; 3 mg/kg): 7.2 ± 0.5 g/kg body weight
Weight coefficients of viscera, heart ([3]; 9 mg/kg): 3.8 ± 0.6 g/kg body weight
AnV^+ 7AAD^+ (late apoptosis) [4, 10]: 69.5 ± 5.8%
AnV^+ 7AAD^− (early apoptosis) [4, 10]: 0.1 ± 0.1%
AnV^−7AAD^− (living cells) [4, 10]: 0.3 ± 0.1%
AnV^−7AAD^+ (necrosis) ([4]; ascites cells having large sizes and granularity (tumor cells), hydrate): 30.2% and 30.2 ± 5.9%
Percent amount of cells with the phenotype AnV^+ 7AAD^+ (late apoptosis) [4, 11]: 4.2 ± 2.4%
Percent amount of cells with the phenotype AnV^+ 7AAD^− early apoptosis [4, 11]: 31.1 ± 10.4%
Percent amount of cells with the phenotype AnV^−7AAD^+ (necrosis) [4, 11]: 0.4 ± 0.4%
Percent amount of cells with the phenotype AnV^−7AAD^− (living cells) [4, 11]: 6.1 ± 6.2%
Basophils, % ([5]; 3 mg/kg): 0%
Erythrocytes, Mln/mm ([5]; 3 mg/kg): 6.5 ± 1.2 Mln/mm
Young, % ([5]; 3 mg/kg): 0%
Basophils, % ([5]; 9 mg/kg): 0%
Erythrocytes, Mln/mm ([5]; 9 mg/kg): 6.4 ± 0.5 Mln/mm
Young, % ([5]; 9 mg/kg): 0%
Avg. erythr. volume., mcm ([5]; 20 mg/kg): 50.4 ± 1.5 mcm
Basophils, % ([5]; 20 mg/kg): 0%
Erythrocytes, Mln/mm ([5]; 20 mg/kg): 6.3 ± 0.8 Mln/mm
Hematocrit, % ([5]; 20 mg/kg): 31.2 ± 3.5%
Young, % ([5]; 20 mg/kg): 0%
death during the 14-day observation period ([6]; 5, 50 and 500 mg/kg single i.m.): No death occurred
Animal body weight (M ± SD) ([6]; females, 5 mg/kg single intramuscular, day 0): 163 ± 15.5 g
Animal body weight (M ± SD) ([6]; females, 50 mg/kg single intramuscular, day 0): 165 ± 17.5 g
Animal body weight (M ± SD) ([6]; females, 500 mg/kg single intramuscular, day 0): 160 ± 8.1 g
Animal body weight (M ± SD) ([6]; females, 500 mg/kg single intramuscular, day 7): 169 ± 8.0 g
Animal body weight (M ± SD) ([6]; males, 5 mg/kg single intramuscular, day 7): 228 ± 18.1 g
Animal body weight (M ± SD) ([6]; males, 5 mg/kg single intramuscular, day 14): 276 ± 17.8 g
Animal body weight (M ± SD) ([6]; males, 50 mg/kg single intramuscular, day 7): 228 ± 17.0 g
Animal body weight (M ± SD) ([6]; males, 50 mg/kg single intramuscular, day 14): 279 ± 18.3 g
Animal body weight (M ± SD) ([6]; males, 500 mg/kg single intramuscular, day 14): 258 ± 24.1 g
LD50 ([6]; single intramuscular administration, exceeds the maximal tested dose): > 500 mg/kg
clinical signs of poisoning [7]: no clinical signs of poisoning were observed
Cell survival rate, % ([8]; 0.5 mcg/mL): 95%
Number of cells × 10^3/mL ([8]; 0.5 mcg/mL): 633 10^3/mL
Cell survival rate, % ([8]; 1.0 mcg/mL): 94%
Number of cells × 10^3/mL ([8]; 1.0 mcg/mL): 599 10^3/mL
Cell survival rate, % ([8]; 5.0 mcg/mL): 96%
Number of cells × 10^3/mL ([8]; 5.0 mcg/mL): 530 10^3/mL
Cell survival rate, % ([8]; 10.0 mcg/mL): 92%
Number of cells × 10^3/mL ([8]; 10.0 mcg/mL): 500 10^3/mL
Cell survival rate, % ([8]; 100 mcg/mL): 70%
Number of cells × 10^3/mL ([8]; 100 mcg/mL): 433 10^3/mL
CPE/syncytia (+) ([9]; 0.5 mcg/mL): 4.0 +
CPE/syncytia (+) ([9]; 1.0 mcg/mL): 2.0 +
CPE/syncytia (+) ([9]; 5.0 mcg/mL): 0 +
CPE/syncytia (+) ([9]; 10 mcg/mL): 0 +
Cell survival rate, % ([9]; 0.5 mcg/mL): 27%
Number of cells × 10^3/mL ([9]; 0.5 mcg/mL): 133.2 10^3/mL
Cell survival rate, % ([9]; 1.0 mcg/mL): 75%
Number of cells × 10^3/mL ([9]; 1.0 mcg/mL): 320.4 10^3/mL
Cell survival rate, % ([9]; 5.0 mcg/mL): 92%
Number of cells × 10^3/mL ([9]; 5.0 mcg/mL): 480.0 10^3/mL
Cell survival rate, % ([9]; 10 mcg/mL): 95%
Number of cells × 10^3/mL ([9]; 10 mcg/mL): 579.3 10^3/mL
EC50 (50% effective concentration) ([9]; HIV-1 infected human cells): 5.0 µg/mL
Animal body weight, g (M ± SD) (females, 5 mg/kg single i.m., day 0): 19.1 ± 2. g
Animal body weight, g (M ± SD) (females, 5 mg/kg single i.m., day 7): 20.6 ± 2 g
Animal body weight, g (M ± SD) (females, 5 mg/kg single i.m., day 14): 22.8 ± 2. g
Animal body weight, g (M ± SD) (females, 50 mg/kg single i.m., day 0): 18.6 ± 1. g
Animal body weight, g (M ± SD) (females, 50 mg/kg single i.m., day 7): 19.9 g
Animal body weight, g (M ± SD) (females, 50 mg/kg single i.m., day 14): 21.9 ± 1. g
Animal body weight, g (M ± SD) (females, 500 mg/kg single i.m., day 0): 18.9 ± 1. g
Animal body weight, g (M ± SD) (females, 500 mg/kg single i.m., day 7): 20.7 ± 0 g
Animal body weight, g (M ± SD) (females, 500 mg/kg single i.m., day 14): 22.8 ± 1. g
Animal body weight, g (M ± SD) (males, 5 mg/kg single i.m., day 0): 23.0 ± 2.9 g
Animal body weight, g (M ± SD) (males, 5 mg/kg single i.m., day 7): 24.1 ± 2 g
Animal body weight, g (M ± SD) (males, 5 mg/kg single i.m., day 14): 25.4 ± 2. g
Animal body weight, g (M ± SD) (males, 50 mg/kg single i.m., day 0): 22.4 ± 2.1 g
Animal body weight, g (M ± SD) (males, 50 mg/kg single i.m., day 7): 23.7 ± 2 g
Animal body weight, g (M ± SD) (males, 50 mg/kg single i.m., day 14): 25.4 ± 2. g
Animal body weight, g (M ± SD) (males, 500 mg/kg single i.m., day 0): 22.6 ± 2.2 g
Animal body weight, g (M ± SD) (males, 500 mg/kg single i.m., day 7): 24.2 ± 1 g
Animal body weight, g (M ± SD) (males, 500 mg/kg single i.m., day 14): 26.2 ± 1. g
local irritant effect (mice and rats, after a single intramuscular injection): does not cause a local irritant effect
death during the 14-day observation period (mice, 5, 50 and 500 mg/kg single i.m.): No death occurred
LD50 (mice, single intramuscular administration, exceeds the maximal tested dose): > 500 mg/kg
